Activity calls are given as the source filed them. No rule for the calls is given here.
Tested on: CCRIS mutagenicity, Ames/micronucleus/aberration tests
Experiment: CCRIS mutagenicity studies
[1] = Test System: AMES SALMONELLA TYPHIMURIUM, Strain/Indicator: TA98, Metabolic Activation: NONE, Method: STANDARD PLATE
[2] = Test System: AMES SALMONELLA TYPHIMURIUM, Strain/Indicator: TA98, Metabolic Activation: RAT, LIVER, S-9, AROCLOR 1254, Method: STANDARD PLATE
[3] = Test System: AMES SALMONELLA TYPHIMURIUM, Strain/Indicator: TA100, Metabolic Activation: NONE, Method: STANDARD PLATE
[4] = Test System: AMES SALMONELLA TYPHIMURIUM, Strain/Indicator: TA100, Metabolic Activation: RAT, LIVER, S-9, AROCLOR 1254, Method: STANDARD PLATE
[5] = Test System: AMES SALMONELLA TYPHIMURIUM, Strain/Indicator: TA1535, Metabolic Activation: NONE, Method: STANDARD PLATE
[6] = Test System: AMES SALMONELLA TYPHIMURIUM, Strain/Indicator: TA1535, Metabolic Activation: RAT, LIVER, S-9, AROCLOR 1254, Method: STANDARD PLATE
[7] = Test System: AMES SALMONELLA TYPHIMURIUM, Strain/Indicator: TA1537, Metabolic Activation: NONE, Method: STANDARD PLATE
[8] = Test System: AMES SALMONELLA TYPHIMURIUM, Strain/Indicator: TA1537, Metabolic Activation: RAT, LIVER, S-9, AROCLOR 1254, Method: STANDARD PLATE
[9] = Test System: AMES SALMONELLA TYPHIMURIUM, Strain/Indicator: TA98, Metabolic Activation: NONE
[10] = Test System: AMES SALMONELLA TYPHIMURIUM, Strain/Indicator: TA100, Metabolic Activation: NONE

Measured: mutagenic call

Nc1ccc(S(=O)(=O)Nc2cnc3c(Cl)cccc3n2)cc1
inactive: Test System: AMES SALMONELLA TYPHIMURIUM, Strain/Indicator: TA98, Metabolic Activation: HAMSTER, LIVER, S-9, AROCLOR 1254, Method: STANDARD PLATE inactive; negative | [1] inactive; negative | [2] inactive; negative | Test System: AMES SALMONELLA TYPHIMURIUM, Strain/Indicator: TA100, Metabolic Activation: HAMSTER, LIVER, S-9, AROCLOR 1254, Method: STANDARD PLATE inactive; negative | [3] inactive; negative | [4] inactive; negative | Test System: AMES SALMONELLA TYPHIMURIUM, Strain/Indicator: TA1535, Metabolic Activation: HAMSTER, LIVER, S-9, AROCLOR 1254, Method: STANDARD PLATE inactive; negative | [5] inactive; negative | [6] inactive; negative | Test System: AMES SALMONELLA TYPHIMURIUM, Strain/Indicator: TA1537, Metabolic Activation: HAMSTER, LIVER, S-9, AROCLOR 1254, Method: STANDARD PLATE inactive; negative | [7] inactive; negative | [8] inactive; negative | Test System: AMES SALMONELLA TYPHIMURIUM, Strain/Indicator: TA1538, Metabolic Activation: HAMSTER, LIVER, S-9, AROCLOR 1254, Method: STANDARD PLATE inactive; negative | Test System: AMES SALMONELLA TYPHIMURIUM, Strain/Indicator: TA1538, Metabolic Activation: NONE, Method: STANDARD PLATE inactive; negative | Test System: AMES SALMONELLA TYPHIMURIUM, Strain/Indicator: TA1538, Metabolic Activation: RAT, LIVER, S-9, AROCLOR 1254, Method: STANDARD PLATE inactive; negative | Test System: MOUSE LYMPHOMA, Strain/Indicator: L5178Y (TK+/TK-), Metabolic Activation: NONE, Method: SUSPENSION/PLATE inactive; negative. reevaluation of results: negative | Test System: MOUSE LYMPHOMA, Strain/Indicator: L5178Y (TK+/TK-), Metabolic Activation: RAT, LIVER, S-9, AROCLOR 1254, Method: SUSPENSION/PLATE inactive; negative. reevaluation of results: negative

CC(=O)OCCN(CCOC(C)=O)c1ccc([N+](=O)[O-])c2c(NCCCN(C)C)c3ccccc3nc12
active: [1] active; positive | [3] active; positive

c1cc2c3c(c1)C1NC1c1cccc(c1-3)C1NC21 (stereo not given)
active: [3] active; positive

CC1=C(C(=O)OCCN(Cc2ccccc2)c2ccccc2)C(c2cccc([N+](=O)[O-])c2)C(P2(=O)OCC(C)(C)CO2)=C(C)N1 (stereo not given)
inactive: [9] inactive; negative | Test System: AMES SALMONELLA TYPHIMURIUM, Strain/Indicator: TA98, Metabolic Activation: RAT, LIVER, S-9, PHENOBARBITAL AND 5,6-BENZOFLAVONE inactive; negative | [10] inactive; negative | Test System: AMES SALMONELLA TYPHIMURIUM, Strain/Indicator: TA100, Metabolic Activation: RAT, LIVER, S-9, PHENOBARBITAL AND 5,6-BENZOFLAVONE inactive; negative | Test System: AMES SALMONELLA TYPHIMURIUM, Strain/Indicator: TA1535, Metabolic Activation: NONE inactive; negative | Test System: AMES SALMONELLA TYPHIMURIUM, Strain/Indicator: TA1535, Metabolic Activation: RAT, LIVER, S-9, PHENOBARBITAL AND 5,6-BENZOFLAVONE inactive; negative | Test System: AMES SALMONELLA TYPHIMURIUM, Strain/Indicator: TA1537, Metabolic Activation: NONE inactive; negative | Test System: AMES SALMONELLA TYPHIMURIUM, Strain/Indicator: TA1537, Metabolic Activation: RAT, LIVER, S-9, PHENOBARBITAL AND 5,6-BENZOFLAVONE inactive; negative | Test System: E.COLI, Strain/Indicator: WP2 UVRA, Metabolic Activation: NONE inactive; negative

C=CCC1=C(C)C(OC(=O)[C@@H]2[C@@H](C=C(C)C)C2(C)C)CC1=O (stereo not given in full)
inactive: [9] inactive; negative | Test System: AMES SALMONELLA TYPHIMURIUM, Strain/Indicator: TA98, Metabolic Activation: NONE, Method: MICROSUSPENSION inactive; negative | [1] inactive; negative | [2] inactive; negative | Test System: AMES SALMONELLA TYPHIMURIUM, Strain/Indicator: TA98, Metabolic Activation: RAT, LIVER, S-9, PHENOBARBITONE, Method: STANDARD PLATE inactive; negative | Test System: AMES SALMONELLA TYPHIMURIUM, Strain/Indicator: TA98, Metabolic Activation: S-9, Method: MICROSUSPENSION inactive; negative | Test System: AMES SALMONELLA TYPHIMURIUM, Strain/Indicator: TA100, Metabolic Activation: NONE, Method: MICROSUSPENSION inactive; negative | Test System: AMES SALMONELLA TYPHIMURIUM, Strain/Indicator: TA100, Metabolic Activation: S-9, Method: MICROSUSPENSION inactive; negative | Test System: AMES SALMONELLA TYPHIMURIUM, Strain/Indicator: TA104, Metabolic Activation: NONE, Method: STANDARD PLATE inactive; negative | [5] inactive; negative | [6] inactive; negative | [7] inactive; negative | [8] inactive; negative | Test System: E. COLI, Strain/Indicator: WP2, Metabolic Activation: NONE, Method: STANDARD PLATE inactive; negative | Test System: E. COLI, Strain/Indicator: WP2, Metabolic Activation: RAT, LIVER, S-9, AROCLOR 1254, Method: STANDARD PLATE inactive; negative
active: Test System: AMES SALMONELLA TYPHIMURIUM, Strain/Indicator: TA97, Metabolic Activation: NONE, Method: STANDARD PLATE active; positive | Test System: AMES SALMONELLA TYPHIMURIUM, Strain/Indicator: TA97, Metabolic Activation: RAT, LIVER, S-9, PHENOBARBITONE, Method: STANDARD PLATE active; positive | Test System: AMES SALMONELLA TYPHIMURIUM, Strain/Indicator: TA98 active; positive | Test System: AMES SALMONELLA TYPHIMURIUM, Strain/Indicator: TA100 active; positive | [10] active; positive | [4] active; positive | Test System: AMES SALMONELLA TYPHIMURIUM, Strain/Indicator: TA100, Metabolic Activation: RAT, LIVER, S-9, PHENOBARBITONE, Method: STANDARD PLATE active; positive | Test System: AMES SALMONELLA TYPHIMURIUM, Strain/Indicator: TA100, Metabolic Activation: S-9 MIX, Method: STANDARD PLATE active; positive | Test System: AMES SALMONELLA TYPHIMURIUM, Strain/Indicator: TA104, Metabolic Activation: RAT, LIVER, S-9, PHENOBARBITONE, Method: STANDARD PLATE active; positive

COc1cc2c(c3oc(=O)c4c(c13)CCOC4=O)[C@@H]1C=CO[C@@H]1O2
active: Test System: AMES SALMONELLA TYPHIMURIUM, Strain/Indicator: TA98, Metabolic Activation: RAT, LIVER, MICROSOMES, PHENOBARBITAL, Method: STANDARD PLATE active; positive | Test System: AMES SALMONELLA TYPHIMURIUM, Strain/Indicator: TA98, Metabolic Activation: RAT, LIVER, S-9, PHENOBARBITAL, Method: STANDARD PLATE active; positive | Test System: AMES SALMONELLA TYPHIMURIUM, Strain/Indicator: TA100, Metabolic Activation: NONE, Method: PREINCUBATION active; positive | Test System: AMES SALMONELLA TYPHIMURIUM, Strain/Indicator: TA100, Metabolic Activation: RAT, LIVER, MICROSOMES, PHENOBARBITAL, Method: STANDARD PLATE active; positive | Test System: AMES SALMONELLA TYPHIMURIUM, Strain/Indicator: TA100, Metabolic Activation: RAT, LIVER, S-9, PHENOBARBITAL, Method: PREINCUBATION active; positive | Test System: UDS HUMAN FIBROBLASTS, Strain/Indicator: THY INCORP (NON-S-PHASE), Metabolic Activation: MOUSE, LIVER, S-9, Method: AUTORADIOGRAPHY active; positive | Test System: UDS RODENT HEPATOCYTES, Strain/Indicator: THY INCORP (NON-S-PHASE), Method: AUTORADIOGRAPHY active; positive
